Source: PMC9404711 (Antibiotics, 2022)
Values after ≈ are worked out from the molar mass of the structure shown. Where two headings read alike, the source gives them in different places. Positions of bridges follow the written chain, without caps; N, C: chain ends. Non-standard residues stand in square brackets, D forms with d. Residues, ends and D or L forms follow the SMILES beside them. *: point of attachment. X1 = CC[C@H](C)CCCCC(=O)*; Dab = NCC[C@H](N)C(=O)O

Columns and labels:
[1] = system: A. baumannii (ATCC 19606); format: cell-based, Acinetobacter baumannii
Procedure: (§1) The following bacteria were grown in cation-adjusted Muller-Hinton broth at 37 °C with shaking: A. baumannii (ATCC 19606), E. coli (ATCC 25922), K. pneumoniae (ATCC 13883), P. aeruginosa (ATCC 27853), and S. aureus (ATCC 29213).
(§2) The MIC experiments were performed in triplicate, as described in Jensen et al.. Briefly, all peptide stock solutions were prepared by dissolving each peptide in Milli-Q water to obtain a concentration of 10 mg/mL. A bacterial concentration of 10^6 CFU/mL was obtained through the dilution of an overnight culture (MHB-II medium). When the overnight culture was prepared, the OD was measured using a spectrophotometer and when an OD value between 0.2 and 0.4 was obtained, the culture was diluted to OD = 0.002. The MIC determination was carried out in 96-well polypropylene microtitre plates. […] A final bacterial inoculum of 5 × 10^5 CFU/mL per well was obtained by adding 50 μL bacterial suspension to the microtiter plates. The plates were incubated at 37 °C for 18–24 h. To verify the CFU, 10 μL of bacteria suspension was transferred to 990 μL 0.9 % saline solution, from which a 10-fold dilution was carried out. Then, 100 μL of the dilution was plated on an LB plate and left for bacterial growth overnight at 37 °C. Colistin and vancomycin were used as the positive controls.

[2] = system: P. aeruginosa (ATCC 27853); format: cell-based, Pseudomonas aeruginosa
Procedure: as §1, §2

[3] = system: K. pneumoniae (ATCC 13883); format: cell-based, Klebsiella pneumoniae
Procedure: as §1, §2

E. coli (ATCC 25922) = format: cell-based, Escherichia coli
Procedure: as §1, §2

S. aureus (ATCC 29213) = experiment: MIC determination, broth microdilution; format: cell-based, Staphylococcus aureus; settings: for MIC SA: S. aureus ATCC 29213, MHB-II, 37 °C, 18–24 h, triplicate
Procedure: as §1, §2

[4] = Hydrophobicity by analytical RP-HPLC (%B at elution); format: physicochemical; settings: chromatographic, analytical reversed-phase HPLC, Waters Symmetry C18 5 μm 4.6 × 250 mm; A: H2O + 0.1% TFA, B: 90:10 ACN-H2O + 0.1% TFA
Procedure: Peptide purity was determined as described previously by analytical RP-HPLC using a Waters 717 plus Autosampler, In-line Degasser AF, 600 Controller, and 2996 Photodiode Array Detector; the column used was a Waters Symmetry C18 column (5 μm, 4.6 mm × 250 mm, Milford, MA, USA). An aqueous acetonitrile (ACN) gradient with 0.1% TFA added (mixing eluent A: H2O + 0.1% TFA and eluent B: 90:10 ACN-H2O + 0.1% TFA) was employed using milli-Q water. Preparative RP-HPLC was performed by using a Waters XSelect Peptide CSH C18 OBDTM column (5 μm, 19 mm × 250 mm, Milford, MA, USA) with the same eluents as for analytical HPLC.
*Hydrophobicity as indicated by the percentage of mobile phase B (%B) at the peak elution time on analytical

[5] = A. baumannii ATCC 19606, MHB-II, inoculum 5 × 10^5 CFU/mL, 37 °C, 18–24 h, triplicate
[6] = P. aeruginosa ATCC 27853, MHB-II, inoculum 5 × 10^5 CFU/mL, 37 °C, 18–24 h, triplicate
[7] = K. pneumoniae ATCC 13883, MHB-II, inoculum 5 × 10^5 CFU/mL, 37 °C, 18–24 h, triplicate
[8] = E. coli ATCC 25922, MHB-II, inoculum 5 × 10^5 CFU/mL, 37 °C, 18–24 h, triplicate
[9] = value in brackets, A. baumannii ATCC 19606, MHB-II, 37 °C, 18–24 h, triplicate
[10] = value in brackets, P. aeruginosa ATCC 27853, MHB-II, 37 °C, 18–24 h, triplicate
[11] = value in brackets, K. pneumoniae ATCC 13883, MHB-II, 37 °C, 18–24 h, triplicate
[12] = value in brackets, E. coli ATCC 25922, MHB-II, 37 °C, 18–24 h, triplicate

## CC[C@H](C)CCCCC(=O)N[C@@H](CCN)C(=O)N[C@H](C(=O)N[C@@H](CCN)C(=O)N[C@H]1CCNC(=O)[C@H]([C@@H](C)O)NC(=O)[C@H](CCN)NC(=O)[C@H](CCN)NC(=O)[C@H](CC(C)C)NC(=O)[C@@H](CC(C)C)NC(=O)[C@H](CCN)NC1=O)[C@@H](C)O [Colistin, reference compound] (X1-[Dab]T[Dab][Dab][Dab][dL]L[Dab][Dab]T; lactam 4-C (inferred); N-terminus assumed)
[1]; [5]
  MIC AB: 0.25 µg/mL
[1]; ATCC 19606
  MIC AB: 0.2 µM
[2]; ATCC 27853
  MIC PA: 0.4 µM
[2]; [6]
  MIC PA: 0.5 µg/mL
[3]; ATCC 13883
  MIC KP: 0.4 µM
[3]; [7]
  MIC KP: 0.5 µg/mL
E. coli (ATCC 25922); ATCC 25922
  MIC EC: 0.2 µM
E. coli (ATCC 25922); [8]
  MIC EC: 0.25 µg/mL

## CN[C@H](CC(C)C)C(=O)N[C@H]1C(=O)N[C@@H](CC(N)=O)C(=O)N[C@H]2C(=O)N[C@H]3C(=O)N[C@H](C(=O)N[C@H](C(=O)O)c4cc(O)cc(O)c4-c4cc3ccc4O)[C@H](O)c3ccc(c(Cl)c3)Oc3cc2cc(c3O[C@@H]2O[C@H](CO)[C@@H](O)[C@H](O)[C@H]2O[C@H]2C[C@](C)(N)[C@H](O)[C@H](C)O2)Oc2ccc(cc2Cl)[C@H]1O [Vancomycin, reference compound]
S. aureus (ATCC 29213); inoculum 5 × 10^5 CFU/mL
  MIC SA: 0.5 µg/mL
S. aureus (ATCC 29213); Staphylococcus aureus, ATCC29213, read-out: MIC SA
  MIC: 0.35 µM (≈ 0.507 µg/mL)

## CCCCCCCCCCCC(=O)N[C@H](CCCCN)C(=O)N[C@H](CCCCN)C(=O)N[C@H](CC(C)C)C(=O)N[C@H](Cc1ccccc1)C(=O)N[C@H](CCCCN)C(=O)N[C@H](CCCCN)C(=O)N[C@@H](C(=O)N[C@H](CC(C)C)C(=O)N1CCCC[C@H](C(N)=O)NC(=O)[C@@H](Cc2ccc(O)cc2)NC(=O)[C@@H](CCCNC(=N)N)NC(=O)C1)[C@H](C)CC [compound 11]
[1]; [5]
  MIC AB: 4 µg/mL
[1]; [9]
  MIC AB: 2.3 µM
S. aureus (ATCC 29213); inoculum 5 × 10^5 CFU/mL
  MIC SA: 4 µg/mL
S. aureus (ATCC 29213); value in brackets
  MIC SA: 2.3 µM
[2]; [6]
  MIC PA: 4 µg/mL
[2]; [10]
  MIC PA: 2.3 µM
[3]; [7]
  MIC KP: 8 µg/mL
[3]; [11]
  MIC KP: 4.6 µM
[4]
  %B (hydrophobicity: percentage of mobile phase B at the peak elution time): 66.2 %B
E. coli (ATCC 25922); [8]
  MIC EC: 4 µg/mL
E. coli (ATCC 25922); [12]
  MIC EC: 2.3 µM

## CCCCCCCCCCCCCC(=O)N[C@H](CCCCN)C(=O)N[C@H](CCCCN)C(=O)N[C@H](CC(C)C)C(=O)N[C@H](Cc1ccccc1)C(=O)N[C@H](CCCCN)C(=O)N[C@H](CCCCN)C(=O)N[C@@H](C(=O)N[C@H](CC(C)C)C(=O)N1CCCC[C@H](C(N)=O)NC(=O)[C@@H](Cc2ccc(O)cc2)NC(=O)[C@@H](CCCNC(=N)N)NC(=O)C1)[C@H](C)CC [compound 12]
[1]; [5]
  MIC AB: 16 µg/mL
[1]; [9]
  MIC AB: 9.3 µM
S. aureus (ATCC 29213); inoculum 5 × 10^5 CFU/mL
  MIC SA: 8 µg/mL
S. aureus (ATCC 29213); value in brackets
  MIC SA: 4.6 µM
[2]; [6]
  MIC PA: 16 µg/mL
[2]; [10]
  MIC PA: 9.3 µM
[3]; [7]
  MIC KP: 4 µg/mL
[3]; [11]
  MIC KP: 2.3 µM
[4]
  %B (hydrophobicity: percentage of mobile phase B at the peak elution time): 70.0 %B
E. coli (ATCC 25922); [8]
  MIC EC: 8 µg/mL
E. coli (ATCC 25922); [12]
  MIC EC: 4.6 µM

## CCCCCCCCCCCC(=O)N[C@H](CCCCN)C(=O)N[C@H](CCCCN)C(=O)N[C@H](CC(C)C)C(=O)N[C@H](Cc1ccccc1)C(=O)N[C@H](CCCCN)C(=O)N[C@H](CCCCN)C(=O)N1CCCC[C@H](C(N)=O)NC(=O)[C@@H](Cc2ccc(O)cc2)NC(=O)[C@@H](CCCNC(=N)N)NC(=O)[C@@H](CC(C)C)NC(=O)[C@@H]([C@H](C)CC)NC(=O)C1 [compound 17]
[1]; [5]
  MIC AB: 4 µg/mL
[1]; [9]
  MIC AB: 2.4 µM
S. aureus (ATCC 29213); inoculum 5 × 10^5 CFU/mL
  MIC SA: 4 µg/mL
S. aureus (ATCC 29213); value in brackets
  MIC SA: 2.4 µM
[2]; [6]
  MIC PA: 8 µg/mL
[2]; [10]
  MIC PA: 4.8 µM
[4]
  %B (hydrophobicity: percentage of mobile phase B at the peak elution time): 65.5 %B
E. coli (ATCC 25922); [8]
  MIC EC: 8 µg/mL
E. coli (ATCC 25922); [12]
  MIC EC: 4.7 µM
